Structures are written as SMILES. Where two headings read alike, the source gives them in different places.

For the test, the target named is T1, DinB2 (MsmDinB2) (Mycolicibacterium smegmatis, UniProt A0QR77).
T1 construct: gene dinB; full-length 356 aa, 39 kDa, monomer; expressed in E. coli BL21(DE3) as His10Smt3 fusion, tag removed with Ulp1
Briefly: primer extension, kobs of first nucleotide addition vs nucleotide concentration, hyperbolic fit. The test is classed as biochemical. The conditions noted are these: 5 mM MgCl2, 10 mM Tris-HCl pH 7.5, 37 °C, 1 μM enzyme, read-out: apparent Kd.

Setting [1] is: 50 nM 13-mer/18-mer DNA primer-template with dG as first template base.
Setting [2] is: 50 nM 13-mer/18-mer DNA primer-template with dT as first template base.
Where [3] appears, read: 50 nM 13-mer/18-mer DNA primer-template with dC as first template base.
[4] abbreviates: 50 nM 13-mer/18-mer DNA primer-template with dA as first template base.

T1 sequence (A0QR77 entry or part of it): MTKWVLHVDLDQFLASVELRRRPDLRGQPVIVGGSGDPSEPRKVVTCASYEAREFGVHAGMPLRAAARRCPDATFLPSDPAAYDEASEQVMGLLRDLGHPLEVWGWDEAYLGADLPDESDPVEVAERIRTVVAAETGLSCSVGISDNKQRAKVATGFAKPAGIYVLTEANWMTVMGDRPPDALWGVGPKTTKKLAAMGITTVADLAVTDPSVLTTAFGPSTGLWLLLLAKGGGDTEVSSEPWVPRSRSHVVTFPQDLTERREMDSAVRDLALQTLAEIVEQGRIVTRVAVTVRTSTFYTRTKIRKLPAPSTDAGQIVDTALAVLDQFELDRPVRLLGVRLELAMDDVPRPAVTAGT

For `Nc1ccn([C@H]2C[C@H](O)[C@@H](COP(=O)(O)OP(=O)(O)OP(=O)(O)O)O2)c(=O)n1` [dCTP], the Kd under setting [1] was found to be 1.5 µM.
In the case of `Nc1ncnc2c1ncn2[C@@H]1O[C@H](COP(=O)(O)OP(=O)(O)OP(=O)(O)O)[C@@H](O)[C@H]1O` [ATP], the Kd under setting [2] turned out to be 66 µM.
Turning to `Nc1nc2c(ncn2[C@H]2C[C@H](O)[C@@H](COP(=O)(O)OP(=O)(O)OP(=O)(O)O)O2)c(=O)[nH]1` [dGTP], under setting [3], the Kd was 0.87 µM.
As for `Nc1nc2c(ncn2[C@@H]2O[C@H](COP(=O)(O)OP(=O)(O)OP(=O)(O)O)[C@@H](O)[C@H]2O)c(=O)[nH]1` [GTP], the Kd under setting [3] is 22 µM.
`Nc1ncnc2c1ncn2[C@H]1C[C@H](O)[C@@H](COP(=O)(O)OP(=O)(O)OP(=O)(O)O)O1` [dATP]: the Kd under setting [2] was determined as 0.85 µM.
In the case of `Nc1ccn([C@@H]2O[C@H](COP(=O)(O)OP(=O)(O)OP(=O)(O)O)[C@@H](O)[C@H]2O)c(=O)n1` [CTP], under setting [1], the Kd turned out to be 44 µM.
Regarding `O=c1ccn([C@@H]2O[C@H](COP(=O)(O)OP(=O)(O)OP(=O)(O)O)[C@@H](O)[C@H]2O)c(=O)[nH]1` [UTP], under setting [4], the Kd amounted to 411 µM.
On to `Cc1cn([C@H]2C[C@H](O)[C@@H](COP(=O)(O)OP(=O)(O)OP(=O)(O)O)O2)c(=O)[nH]c1=O` [dTTP], for which the Kd under setting [4] was 8 µM.

(Values after article PMC4176160, “Characterization of three mycobacterial DinB (DNA polymerase IV) paralogs highlights DinB2 as naturally adept at ribonucleotide incorporation” (Nucleic Acids Research, 2014).)
